Results as given in article PMC12045974, “T cell toxicity induced by tigecycline binding to the mitochondrial ribosome” (Nature Communications, 2025).
Values joined by “and” are separate entries in the source; they are usually repeats but may differ in a detail not shown here. Identical values can stand only once. Like-named read-outs stand apart in the source and are kept apart here.

How the values were obtained:
[1] = test system: PBMCs; assay: Cell viability assay (CCK-8), PBMCs; type: cell-based, human; conditions: 72 h, PBMCs; for cell vialibity normalized to Vehicle (DMSO): in % (unit assumed)
Procedure: Buffy coats were ordered from anonymous blood donors at […]. […] Cells were seeded in 96-well plates ranging from 2000 to 15,000 cells per well depending on different cell lines and treated with antibiotics in serial dilutions for 72 h (120 h for the preliminary assays) in a humidified incubator (37 °C, 5% CO2) in 100 μl medium (DMEM with 10% FBS, 2.05 mM L-glutamine (Sigma) for Hek293 and Hela; RPMI-1640 with 10% FBS, 2.05 mM L-glutamine (Sigma), and 55 μM 2-ME (Gibco) for Jurkat T cells and PBMCs). Based on preliminary tests, the number of cells per well was optimized to 2000 for Hela and Hek293, 6000 for Jurkat T cells, and 15,000 for PBMCs. The stocks of antibiotics were prepared by dissolving in DMSO. As control, the same amount of DMSO was added to the non-treated groups. Serial drug dilutions were prepared in the corresponding medium to provide a total of 9 concentrations up to 300 μM for tetracyclines and up to 900 μM for additional bacterial protein synthesis inhibitors. After drug treatment, 10% CCK-8 (Cell Counting Kit-8, Sigma Aldrich) (10 μl per well) of the total volume was added to the cells and incubated for 1-4 h depending on cell lines (1 h for Hela and Hek293; 3 h for Jurkat T cells; 4 h for PBMCs) before the evaluation of the effect of antibiotics on cell viability. […] Results were visually confirmed under the light microscope. Each treatment was performed in technical repeats. Dose-response curves were plotted, mean ± SEM was shown, and half maximal inhibitory concentration (IC50) values were calculated in GraphPad Prism.

[2] = test system: Jurkat T cells; assay: Cell viability assay (CCK-8), Jurkat T cells; type: cell-based, human; conditions: Jurkat, 72 h, Fig. 1A, in % (unit assumed)
Procedure: Cells were seeded in 96-well plates ranging from 2000 to 15,000 cells per well depending on different cell lines and treated with antibiotics in serial dilutions for 72 h (120 h for the preliminary assays) in a humidified incubator (37 °C, 5% CO2) in 100 μl medium (DMEM with 10% FBS, 2.05 mM L-glutamine (Sigma) for Hek293 and Hela; RPMI-1640 with 10% FBS, 2.05 mM L-glutamine (Sigma), and 55 μM 2-ME (Gibco) for Jurkat T cells and PBMCs). Based on preliminary tests, the number of cells per well was optimized to 2000 for Hela and Hek293, 6000 for Jurkat T cells, and 15,000 for PBMCs. The stocks of antibiotics were prepared by dissolving in DMSO. As control, the same amount of DMSO was added to the non-treated groups. Serial drug dilutions were prepared in the corresponding medium to provide a total of 9 concentrations up to 300 μM for tetracyclines and up to 900 μM for additional bacterial protein synthesis inhibitors. After drug treatment, 10% CCK-8 (Cell Counting Kit-8, Sigma Aldrich) (10 μl per well) of the total volume was added to the cells and incubated for 1–4 h depending on cell lines (1 h for Hela and Hek293; 3 h for Jurkat T cells; 4 h for PBMCs) before the evaluation of the effect of antibiotics on cell viability. […] Results were visually confirmed under the light microscope. Each treatment was performed in technical repeats. Dose-response curves were plotted, mean ± SEM was shown, and half maximal inhibitory concentration (IC50) values were calculated in GraphPad Prism.

[3] = Homo sapiens, PBMC, dose 300 μM, Fig. 1B, read-out: cell vialibity normalized to Vehicle (DMSO)
[4] = Homo sapiens, PBMC, dose 0.0457247 μM, Fig. 1A, read-out: cell vialibity normalized to Vehicle (DMSO)
[5] = Homo sapiens, PBMC, dose 100 μM, Fig. 1A, read-out: cell vialibity normalized to Vehicle (DMSO)
[6] = Homo sapiens, PBMC, dose 0.411523 μM, Fig. 1B, read-out: cell vialibity normalized to Vehicle (DMSO)
[7] = Homo sapiens, PBMC, dose 1.23457 μM, Fig. 1B, read-out: cell vialibity normalized to Vehicle (DMSO)
[8] = Homo sapiens, PBMC, dose 11.1111 μM, Fig. 1B, read-out: cell vialibity normalized to Vehicle (DMSO)

CC(=O)NC[C@H]1CN(c2ccc(N3CCOCC3)c(F)c2)C(=O)O1 [Linezolid, linezolid]
viability at 300 µM [1, 3]: 24.4%

oxycycline
cell vialibity normalized to Vehicle (DMSO) ([1]; dose 0.0457247 μM, Fig. 1A): 99.5117 and 100.066 and 89.1698 and 120.008 and 102.707
cell vialibity normalized to Vehicle (DMSO) ([1]; dose 0.137174 μM, Fig. 1A): 101.938 and 102.097 and 92.5408 and 113.339 and 130.667
cell vialibity normalized to Vehicle (DMSO) ([1]; dose 0.411523 μM, Fig. 1A): 93.1002 and 107.019 and 97.4538 and 111.081 and 113.453
cell vialibity normalized to Vehicle (DMSO) ([1]; dose 1.23457 μM, Fig. 1A): 93.4625 and 104.955 and 100.95 and 107.767 and 104.422
cell vialibity normalized to Vehicle (DMSO) ([1]; dose 3.7037 μM, Fig. 1A): 87.0825 and 89.8101 and 98.4579 and 106.835 and 106.22
cell vialibity normalized to Vehicle (DMSO) ([1]; dose 11.1111 μM, Fig. 1A): 86.2319 and 86.9364 and 102.905 and 107.27 and 113.598
cell vialibity normalized to Vehicle (DMSO) ([1]; dose 33.3333 μM, Fig. 1A): 84.2313 and 84.0462 and 91.6801 and 95.3397 and 99.442
cell vialibity normalized to Vehicle (DMSO) ([2]; dose 0.0457247 μM): 95.9551 and 99.8266 and 111.591
cell vialibity normalized to Vehicle (DMSO) ([2]; dose 0.137174 μM): 122.921 and 100.043 and 106.21
cell vialibity normalized to Vehicle (DMSO) ([2]; dose 1.23457 μM): 104.27 and 99.6099 and 104.508
cell vialibity normalized to Vehicle (DMSO) ([2]; dose 3.7037 μM): 87.8652 and 92.4577 and 103.45
cell vialibity normalized to Vehicle (DMSO) ([2]; dose 11.1111 μM): 101.124 and 98.0061 and 123.919
cell vialibity normalized to Vehicle (DMSO) ([2]; dose 33.3333 μM): 92.809 and 101.734 and 114.305
cell vialibity normalized to Vehicle (DMSO) ([2]; dose 100 μM): 28.8764 and 25.2276 and 26.6329
cell vialibity normalized to Vehicle (DMSO) ([2]; dose 300 μM): 15.1685 and 10.4898 and 12.0515

CN(C)c1ccc(O)c2c1C[C@H]1C[C@H]3[C@H](N(C)C)C(O)=C(C(N)=O)C(=O)[C@@]3(O)C(O)=C1C2=O [Minocycline, minocycline]
viability at 0.0457247 µM [1, 4]: 97.4%
viability at 0.137174 µM ([1]; Homo sapiens, PBMC, dose 0.137174 μM, Fig. 1A, read-out: cell vialibity normalized to Vehicle (DMSO)): 98.5%
viability at 0.411523 µM ([1]; Homo sapiens, PBMC, dose 0.411523 μM, Fig. 1A, read-out: cell vialibity normalized to Vehicle (DMSO)): 100%
viability at 1.23457 µM ([1]; Homo sapiens, PBMC, dose 1.23457 μM, Fig. 1A, read-out: cell vialibity normalized to Vehicle (DMSO)): 95.2%
viability at 3.7037 µM ([1]; Homo sapiens, PBMC, dose 3.7037 μM, Fig. 1A, read-out: cell vialibity normalized to Vehicle (DMSO)): 91.6%
viability at 11.1111 µM ([1]; Homo sapiens, PBMC, dose 11.1111 μM, Fig. 1A, read-out: cell vialibity normalized to Vehicle (DMSO)): 87.6%
viability at 33.3333 µM ([1]; Homo sapiens, PBMC, dose 33.3333 μM, Fig. 1A, read-out: cell vialibity normalized to Vehicle (DMSO)): 81.2%
viability at 100 µM [1, 5]: 46.6%
cell vialibity normalized to Vehicle (DMSO) ([2]; dose 0.0457247 μM): 100.385 and 100.531 and 101.165
cell vialibity normalized to Vehicle (DMSO) ([2]; dose 0.411523 μM): 98.2906 and 97.4244 and 90.1654
cell vialibity normalized to Vehicle (DMSO) ([2]; dose 1.23457 μM): 99.8718 and 96.2387 and 90.2372
cell vialibity normalized to Vehicle (DMSO) ([2]; dose 3.7037 μM): 105.513 and 101.758 and 90.3163
cell vialibity normalized to Vehicle (DMSO) ([2]; dose 11.1111 μM): 49.6581 and 44.3173 and 49.0295
cell vialibity normalized to Vehicle (DMSO) ([2]; dose 33.3333 μM): 19.6154 and 18.6836 and 25.6578
cell vialibity normalized to Vehicle (DMSO) ([2]; dose 100 μM): 12.3932 and 10.5887 and 15.9454
cell vialibity normalized to Vehicle (DMSO) ([2]; dose 300 μM): 6.111 and 6.95 and 5.018

CCC[C@@H]1C[C@@H](C(=O)N[C@@H]([C@H]2O[C@H](SC)[C@H](O)[C@@H](O)[C@H]2O)[C@H](C)Cl)N(C)C1 [Clindamycin, clindamycin]
viability at 0.137174 µM ([1]; Homo sapiens, PBMC, dose 0.137174 μM, Fig. 1B, read-out: cell vialibity normalized to Vehicle (DMSO)): 97%
viability at 0.411523 µM [1, 6]: 95.8%
viability at 1.23457 µM [1, 7]: 92.3%
viability at 11.1111 µM [1, 8]: 102%
viability at 100 µM ([1]; Homo sapiens, PBMC, dose 100 μM, Fig. 1B, read-out: cell vialibity normalized to Vehicle (DMSO)): 94.6%
viability at 300 µM [1, 3]: 63%

medocycline
cell vialibity normalized to Vehicle (DMSO) ([1]; dose 0.0457247 μM, Fig. 1A): 99.3099 and 104.911 and 97.5874 and 111.701 and 85.5908
cell vialibity normalized to Vehicle (DMSO) ([1]; dose 0.137174 μM, Fig. 1A): 96.2044 and 113.924 and 98.007 and 101.337 and 91.5168
cell vialibity normalized to Vehicle (DMSO) ([1]; dose 0.411523 μM, Fig. 1A): 87.4466 and 108.341 and 104.406 and 103.147 and 93.157
cell vialibity normalized to Vehicle (DMSO) ([1]; dose 1.23457 μM, Fig. 1A): 87.9395 and 106.341 and 92.1504 and 97.7385 and 83.3333
cell vialibity normalized to Vehicle (DMSO) ([1]; dose 3.7037 μM, Fig. 1A): 96.5495 and 93.5206 and 91.1364 and 95.1622 and 83.8095
cell vialibity normalized to Vehicle (DMSO) ([1]; dose 11.1111 μM, Fig. 1A): 80.6934 and 86.1279 and 92.0804 and 88.6726 and 85.0088
cell vialibity normalized to Vehicle (DMSO) ([1]; dose 33.3333 μM, Fig. 1A): 52.5961 and 55.9883 and 48.1294 and 49.4985 and 42.8924
cell vialibity normalized to Vehicle (DMSO) ([1]; dose 100 μM, Fig. 1A): 27.933 and 27.6926 and 32.9196 and 27.237 and 25.2205
cell vialibity normalized to Vehicle (DMSO) ([1]; dose 300 μM, Fig. 1A): 19.208 and 32.8451 and 31.9056 and 30.1672 and 23.6508
cell vialibity normalized to Vehicle (DMSO) ([2]; dose 0.0457247 μM): 102.989 and 99.9557 and 109.669
cell vialibity normalized to Vehicle (DMSO) ([2]; dose 0.137174 μM): 102.725 and 107.699 and 114.702
cell vialibity normalized to Vehicle (DMSO) ([2]; dose 0.411523 μM): 103.253 and 102.434 and 102.384
cell vialibity normalized to Vehicle (DMSO) ([2]; dose 1.23457 μM): 99.4725 and 91.8142 and 98.8083
cell vialibity normalized to Vehicle (DMSO) ([2]; dose 3.7037 μM): 86.4176 and 91.8584 and 75.4404
cell vialibity normalized to Vehicle (DMSO) ([2]; dose 11.1111 μM): 52.967 and 57.0354 and 39.5078
cell vialibity normalized to Vehicle (DMSO) ([2]; dose 33.3333 μM): 13.8022 and 14.0708 and 21.114
cell vialibity normalized to Vehicle (DMSO) ([2]; dose 100 μM): 9.495 and 9.425 and 18.7824
cell vialibity normalized to Vehicle (DMSO) ([2]; dose 300 μM): 7.165 and 7.743 and 8.238

CN(C)[C@@H]1C(O)=C(C(N)=O)C(=O)[C@@]2(O)C(O)=C3C(=O)c4c(O)cccc4[C@@](C)(O)[C@H]3C[C@@H]12 [Tetracycline, tetracycline]
viability at 0.0457247 µM [1, 4]: 96%
viability at 100 µM [1, 5]: 42.5%
viability at 300 µM ([1]; Homo sapiens, PBMC, dose 300 μM, Fig. 1A, read-out: cell vialibity normalized to Vehicle (DMSO)): 28.2%
cell vialibity normalized to Vehicle (DMSO) ([2]; dose 0.0457247 μM): 102.181 and 108.663 and 114.096
cell vialibity normalized to Vehicle (DMSO) ([2]; dose 0.137174 μM): 99.1611 and 103.998 and 102.471
cell vialibity normalized to Vehicle (DMSO) ([2]; dose 0.411523 μM): 100 and 102.207 and 96
cell vialibity normalized to Vehicle (DMSO) ([2]; dose 1.23457 μM): 99.3708 and 109.246 and 98.7059
cell vialibity normalized to Vehicle (DMSO) ([2]; dose 3.7037 μM): 100.377 and 106.955 and 130.118
cell vialibity normalized to Vehicle (DMSO) ([2]; dose 11.1111 μM): 115.478 and 121.824 and 122.353
cell vialibity normalized to Vehicle (DMSO) ([2]; dose 100 μM): 13.3809 and 13.536 and 12.3529

CC[C@H]1OC(=O)[C@H](C)[C@@H](O[C@H]2C[C@@](C)(OC)[C@@H](O)[C@H](C)O2)[C@H](C)[C@@H](O[C@@H]2O[C@H](C)C[C@H](N(C)C)[C@H]2O)[C@](C)(O)C[C@@H](C)CN(C)[C@H](C)[C@@H](O)[C@]1(C)O [Azithromycin, azithromycin]
viability at 1.23457 µM [1, 7]: 91%
viability at 11.1111 µM [1, 8]: 82%

C=C[C@]1(C)C[C@@H](OC(=O)CSCCN(CC)CC)[C@]2(C)[C@H](C)CC[C@]3(CCC(=O)[C@H]32)[C@@H](C)[C@@H]1O [Tiamulin, tiamulin]
viability at 0.411523 µM [1, 6]: 103%
viability at 300 µM [1, 3]: 7.89%
viability at 900 µM ([1]; Homo sapiens, PBMC, dose 900 μM, Fig. 1B, read-out: cell vialibity normalized to Vehicle (DMSO)): 3.99%
